Measured values reported in patent US11365192B2, “Pyridine compound substituted with azole” (TAISHO PHARMACEUTICAL CO., LTD., priority 2017, dated 2022).
pIC50: −log10 of the molar value.

Key:
human CYP4A11 = human CYP4A11 (Homo sapiens (Human), UniProt Q02928); experiment: Inhibition test against 20-HETE producing enzyme CYP4A11 (luciferine derivative, luminescence); format: biochemical
Summary of the method: (§1)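 IC50 derived from luminescence after 60 min at room temperature with membrane fractions of E. coli expressing each human CYP (100 μg/mL protein). For CYP4A11, 60 μM luciferin derivative in 100 mM Tris-HCl pH 7.5 with NADPH-regenerating system; for CYP4F2, 2.5 μM substrate, 1 mM NADPH, 50 mM KPO4 pH 7.4.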

human CYP4F2 = human CYP4F2 (Homo sapiens (Human), UniProt P78329); experiment: Inhibition test against 20-HETE producing enzyme CYP4F2 (luciferine derivative, luminescence); format: biochemical
Summary of the method: as §1

[1] = human CYP4A11, luciferine derivative, luminescence
[2] = human CYP4F2, luciferine derivative, luminescence
[3] = E. coli membrane fraction expressing human CYP4A11, 60 μM luciferine derivative, room temperature 60 minutes
[4] = E. coli membrane fraction expressing human CYP4F2, 2.5 μM luciferine derivative, room temperature 60 minutes

human CYP4F2, sequence (P78329 5-520): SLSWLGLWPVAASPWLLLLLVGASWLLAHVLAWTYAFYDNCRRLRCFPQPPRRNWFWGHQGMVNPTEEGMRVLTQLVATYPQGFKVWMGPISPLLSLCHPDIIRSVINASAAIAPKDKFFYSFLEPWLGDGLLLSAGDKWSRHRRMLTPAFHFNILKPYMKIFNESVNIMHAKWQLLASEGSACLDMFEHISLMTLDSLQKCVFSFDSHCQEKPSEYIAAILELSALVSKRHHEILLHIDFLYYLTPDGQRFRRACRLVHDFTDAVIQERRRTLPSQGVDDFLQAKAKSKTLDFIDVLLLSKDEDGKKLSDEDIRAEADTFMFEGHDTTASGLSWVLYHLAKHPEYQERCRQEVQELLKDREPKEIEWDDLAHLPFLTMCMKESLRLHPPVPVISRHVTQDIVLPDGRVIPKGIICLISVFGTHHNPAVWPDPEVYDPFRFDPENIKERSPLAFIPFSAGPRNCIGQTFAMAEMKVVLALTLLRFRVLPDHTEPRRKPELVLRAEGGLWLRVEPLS
human CYP4A11, sequence (Q02928 5-519): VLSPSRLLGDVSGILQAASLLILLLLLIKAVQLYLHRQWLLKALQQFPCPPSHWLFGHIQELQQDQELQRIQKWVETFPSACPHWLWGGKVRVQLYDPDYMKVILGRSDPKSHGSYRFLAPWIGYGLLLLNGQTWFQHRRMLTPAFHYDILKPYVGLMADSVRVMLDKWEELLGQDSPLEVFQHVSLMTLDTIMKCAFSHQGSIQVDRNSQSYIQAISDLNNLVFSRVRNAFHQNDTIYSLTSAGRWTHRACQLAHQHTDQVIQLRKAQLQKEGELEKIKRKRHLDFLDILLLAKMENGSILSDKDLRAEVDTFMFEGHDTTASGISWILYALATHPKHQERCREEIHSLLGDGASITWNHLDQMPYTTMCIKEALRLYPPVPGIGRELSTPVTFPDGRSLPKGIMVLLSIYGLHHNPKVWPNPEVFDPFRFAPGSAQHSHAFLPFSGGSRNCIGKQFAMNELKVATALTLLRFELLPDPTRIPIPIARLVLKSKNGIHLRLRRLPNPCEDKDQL

CN(CC(C)(C)C(=O)O)S(=O)(=O)c1cccc(COc2ccc(-c3ccn[nH]3)nc2)c1 [Example 75-2]
pIC50 (human CYP4A11; [1]): 7.42
pIC50 (human CYP4F2; [2]): 6.89

O=C(O)[C@@H]1CCc2ccc(COc3ccc(-c4ccn[nH]4)nc3)cc2O1 [Example 69-3-1]
pIC50 (human CYP4A11; [1]): 7.64
pIC50 (human CYP4F2; [2]): 6.96

O=C(O)CCc1ccc(CCOc2ccc(-c3ccn[nH]3)nc2)cc1 [Example 1-15]
pIC50 (human CYP4A11; [3]): 6.68
pIC50 (human CYP4F2; [4]): 6.17

C[C@@H](O)CNC(=O)CCc1cccc(COc2ccc(-c3ccn[nH]3)nc2)c1 [Example 43-6]
pIC50 (human CYP4A11; [1]): 7.25
pIC50 (human CYP4F2; [2]): 7.04

CC(C)(O)c1cccc(COc2ccc(-c3ccn[nH]3)nc2)c1 [Example 27-1, 2-[3-[[6-(1-H-Pyrazol-5-yl)-3-pyridinyl]oxymethyl]phenyl]-2-propanol]
pIC50 (human CYP4A11; [3]): 7.36
pIC50 (human CYP4F2; [4]): 6.40

O=C(O)CC1CN(C(=O)c2cccc(COc3ccc(-c4ccn[nH]4)nc3)c2)C1 [Example 45-41]
pIC50 (human CYP4A11; [1]): 6.70
pIC50 (human CYP4F2; [2]): 5.74

CN(C(=O)CCc1cccc(COc2ccc(-c3ccn[nH]3)nc2)c1)S(C)(=O)=O [Example 44-6]
pIC50 (human CYP4A11; [1]): 6.64
pIC50 (human CYP4F2; [2]): 7.35

O=C(CCC12CC(C(=O)O)(C1)C2)N1CCC[C@@H](COc2ccc(-c3ccn[nH]3)nc2)C1 [Example 46-2]
pIC50 (human CYP4A11; [3]): 6.14
pIC50 (human CYP4F2; [4]): 6.33

O=C(NC1(C(=O)O)CCOCC1)c1cccc(COc2ccc(-c3ccn[nH]3)nc2)c1 [Example 45-13]
pIC50 (human CYP4A11; [1]): 6.62
pIC50 (human CYP4F2; [2]): 5.17

O=C(O)CC1CCCN(C(=O)c2cccc(COc3ccc(-c4ccn[nH]4)nc3)c2)C1 (centres unmarked) [Example 45-31]
pIC50 (human CYP4A11; [1]): 6.43
pIC50 (human CYP4F2; [2]): 5.60

CNC(=O)Cc1cccc(COc2ccc(-c3ccn[nH]3)nc2)c1 [Example 42-4]
pIC50 (human CYP4A11; [3]): 6.27
pIC50 (human CYP4F2; [4]): 7.92

O=C(O)c1cc(-c2cccc(COc3ccc(-c4ccn[nH]4)nc3)c2)ccn1 [Example 8-11]
pIC50 (human CYP4A11; [3]): 7.85
pIC50 (human CYP4F2; [4]): 6.92

O=C(O)C1CCN(c2cccc(COc3ccc(-c4ccn[nH]4)nc3)c2)CC1 [Example 34-1, 1-[3-[[6-(1H-Pyrazol-5-yl)-3-pyridinyl]oxymethyl]phenyl]-4-piperidinecarboxylic Acid]
pIC50 (human CYP4A11; [3]): 7.38
pIC50 (human CYP4F2; [4]): 5.39

O=C(O)C1COc2ccc(CCOc3ccc(-c4ccn[nH]4)nc3)cc2C1 (centres unmarked) [Example 71-10]
pIC50 (human CYP4A11; [1]): 6.85
pIC50 (human CYP4F2; [2]): 6.59

O=C(O)[C@@H]1CCCN(C(=O)c2cccc(COc3ccc(-c4ccn[nH]4)nc3)c2)C1 [Example 45-28]
pIC50 (human CYP4A11; [1]): 6.57
pIC50 (human CYP4F2; [2]): 5.43

O=C(O)c1ccnc(CCCOc2ccc(-c3ccn[nH]3)nc2)c1 [Example 29-2, 2-[3-[[6-(1H-Pyrazol-5-yl)-3-pyridinyl]oxy]propyl]-4-pyridinecarboxylic Acid]
pIC50 (human CYP4A11; [3]): 5.89
pIC50 (human CYP4F2; [4]): 5.57

O=C(O)Cn1ncc2cc(COc3ccc(-c4ccn[nH]4)nc3)ccc21 [Example 16-1, 2-[5-[[6-(1H-Pyrazol-5-yl)-3-pyridinyl]oxymethyl]-1-indazolyl]acetic Acid]
pIC50 (human CYP4A11; [3]): 7.28
pIC50 (human CYP4F2; [4]): 5.85

O=C(NCC1(C(=O)O)CCCC1)c1cccc(COc2ccc(-c3ccn[nH]3)nc2)c1 [Example 45-5]
pIC50 (human CYP4A11; [1]): 7.13
pIC50 (human CYP4F2; [2]): 6.12

O=C(NCCO)c1cccc(COc2ccc(-c3ccn[nH]3)nc2)c1 [Example 42-3]
pIC50 (human CYP4A11; [3]): 6.46
pIC50 (human CYP4F2; [4]): 6.68

CNC(=O)CCc1cccc(COc2ccc(-c3ccn[nH]3)nc2)c1 [Example 42-8]
pIC50 (human CYP4A11; [3]): 6.92
pIC50 (human CYP4F2; [4]): 7.15

O=C(O)C1CC1c1ccc(COc2ccc(-c3ccn[nH]3)nc2)cc1F (centres unmarked) [Example 70-11, 2-[2-Fluoro-4-[[6-(1H-pyrazol-5-yl)pyridin-3-yl]oxymethyl]phenyl]cyclopropane-1-carboxylic Acid]
pIC50 (human CYP4A11; [1]): 7.37
pIC50 (human CYP4F2; [2]): 6.48

O=C(O)C1CCN(S(=O)(=O)c2cccc(COc3ccc(-c4ccn[nH]4)nc3)c2)CC1 [Example 22-8]
pIC50 (human CYP4A11; [3]): 7.17
pIC50 (human CYP4F2; [4]): 5.82

C[C@H](CO)NC(=O)CCc1cccc(COc2ccc(-c3ccn[nH]3)nc2)c1 [Example 43-8]
pIC50 (human CYP4A11; [1]): 6.92
pIC50 (human CYP4F2; [2]): 6.92

O=C(O)CCNC(=O)c1cc(COc2ccc(-c3ccn[nH]3)nc2)ccn1 [Example 49-1, 3-[[Oxo-[4-[[6-(1H-pyrazol-5-yl)-3-pyridinyl]oxymethyl]-2-pyridinyl]methyl]amino]propanoic Acid]
pIC50 (human CYP4A11; [3]): 5.92
pIC50 (human CYP4F2; [4]): 5.96

O=C(O)Cc1cccc(COc2ccc(-c3ccn[nH]3)nc2)c1 [Example 22-3]
pIC50 (human CYP4A11; [3]): 7.80
pIC50 (human CYP4F2; [4]): 4.77

O=C(O)[C@]12CC3C[C@H](C1)[C@@H](COc1ccc(-c4ccn[nH]4)nc1)[C@@H](C3)C2 [Example 2-2, cis-4-[[6-(1H-Pyrazol-5-yl)-3-pyridinyl]oxymethyl]-1-adamantanecarboxylic Acid]
pIC50 (human CYP4A11; [3]): 6.89
pIC50 (human CYP4F2; [4]): < 4.30

O=S(=O)(Nc1ccc(F)cc1)c1ccc(COc2ccc(-c3ccn[nH]3)nc2)cc1 [Example 23-6]
pIC50 (human CYP4A11; [3]): 6.57
pIC50 (human CYP4F2; [4]): 8.19

O=C(O)c1ccc(-c2cccc(COc3ccc(-c4ccn[nH]4)nc3)c2)cn1 [Example 31-3, 5-[3-[[6-(1H-Pyrazol-5-yl)-3-pyridinyl]oxymethyl]phenyl]-2-pyridinecarboxylic Acid]
pIC50 (human CYP4A11; [3]): 7.60
pIC50 (human CYP4F2; [4]): 6.74
